According to patent publication US20110251379A1, “COMPOUNDS USEFUL FOR TREATING NEURODEGENERATIVE DISORDERS” (Satori Pharmaceuticals, Inc., priority 2010, published 2011):
Read-outs that look alike come from different tables or passages of the source.

Key:
Format in all cases: cell-based
[1] = tested on: Aβ-42; assay: MSD Human (6E10) Ab 3-PLEX elisa, conditioned media of 2B7 cells: Aβ-42; conditions: for IC50: Aβ-42 (superscript c); for inhibition at 20 µM / % Inh. (range): Aβ-42, 20 μM
Procedure, shortened: (§1)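 We dose confluent 2B7 cells for 5 hours at 37° C, keeping DMSO at 1%. Diluted media then incubates on antibody-coated plates either overnight at 4 degrees C or 2 hours at room temp.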

[2] = tested on: Aβ-40; assay: MSD Human (6E10) Ab 3-PLEX elisa, conditioned media of 2B7 cells: Aβ-40; conditions: for IC50: Aβ-40 (superscript b)
Procedure, shortened: as §1

[3] = tested on: Aβ-38; assay: MSD Human (6E10) Ab 3-PLEX elisa, conditioned media of 2B7 cells: Aβ-38; conditions: for IC50: Aβ-38 (superscript a)
Procedure, shortened: as §1

[4] = Homo sapiens, read-out: IC50 range
[5] = Homo sapiens, read-out: 50% reduction value

Compound C[C@@H]1CC(CN(C)[C@@H](C)C(=O)O)OC2[C@H]1[C@@]1(C)CC[C@@]34C[C@@]35CC[C@H](O[C@H]3CN(C(=O)CC6CC6)CCO3)C(C)(C)[C@@H]5CCC4[C@]1(C)[C@H]2O (some centres unmarked) [drawing 1155] has an IC50 [1, 4] of 1000 to 10000 nM, an inhibition at 100 µM ([2]; Homo sapiens, Aβ-40, 100 μM) of 25 to 75% and an IC50 [3, 4] of less than 1000 nM.

For CC(=O)O[C@@H]([C@H]1C[C@@H](C)C2C(O1)[C@H](O)[C@@]1(C)[C@@H]3CC[C@H]4C(C)(C)[C@@H](O[C@@H]5OC[C@@H](O)[C@H](O)[C@H]5O)CC[C@@]45C[C@@]35CC[C@]21C)C(C)(C)O (some centres unmarked) [drawing 1160], the IC50 [1, 5] was less than 1000 nM, the IC50 [1, 4] was less than 1000 nM and the IC50 [2, 4] was 1 to 10 µM. For the same compound, the IC50 [3, 4] was less than 1000 nM.

CC(=O)OCC1C[C@@H](C)C2C(O1)[C@H](O)[C@@]1(C)[C@@H]3CC[C@H]4C(C)(C)[C@@H](O)CC[C@@]45C[C@@]35CC[C@]21C (some centres unmarked) [drawing 1161] gave an inhibition at 20 µM ([1]; Homo sapiens) of 25 to 75%, an inhibition at 20 µM ([2]; Homo sapiens, Aβ-40, 20 μM) of 25 to 75% and an inhibition at 20 µM ([3]; Homo sapiens, Aβ-38, 20 μM) of 25 to 75%.

CCC(=O)O[C@@H]([C@H]1C[C@@H](C)C2C(O1)[C@H](O)[C@@]1(C)[C@@H]3CC[C@H]4C(C)(C)[C@@H](O)CC[C@@]45C[C@@]35CC[C@]21C)C(C)(C)O (some centres unmarked) [drawing 1197] was tested, and the IC50 [1, 5] was greater than 10000 nM, the IC50 [2, 5] was greater than 10 µM and the IC50 [3, 5] was greater than 10000 nM.

For CC(=O)O[C@@H]([C@H]1C[C@@H](C)C2C(O1)[C@H](O)[C@@]1(C)[C@@H]3CC[C@H]4C(C)(C)[C@@H](OC5CN(CC(N)=O)CCO5)CC[C@@]45C[C@@]35CC[C@]21C)C(C)(C)O (some centres unmarked) [drawing 1198], the IC50 [1, 5] was less than 1000 nM, the IC50 [1, 4] was 1000 to 10000 nM and the inhibition at 20 µM ([2]; Homo sapiens, Aβ-40, 20 μM) was 25 to 75%. It also gave an IC50 [3, 5] of less than 1000 nM.

CC(=O)O[C@@H]([C@H]1C[C@@H](C)C2C(O1)[C@H](O)[C@@]1(C)[C@@H]3CC[C@H]4C(C)(C)[C@@H](OC5CN(CC(=O)N(C)C)CCO5)CC[C@@]45C[C@@]35CC[C@]21C)C(C)(C)O (some centres unmarked) [drawing 1199] was tested, and the IC50 [1, 5] was less than 1000 nM, the IC50 [1, 4] was less than 1000 nM and the IC50 [2, 5] was 1 to 10 µM. It also gave an IC50 [3, 5] of less than 1000 nM and an IC50 [3, 4] of less than 1000 nM.

CC(=O)O[C@@H]([C@H]1C[C@@H](C)C2C(O1)[C@H](O)[C@@]1(C)[C@@H]3CC[C@H]4C(C)(C)[C@@H](OC(=O)c5cccnc5)CC[C@@]45C[C@@]35CC[C@]21C)C(C)(C)O (some centres unmarked) [drawing 1200] was tested, and the IC50 [1, 5] was less than 1000 nM, the IC50 [1, 4] was less than 1000 nM and the IC50 [2, 5] was greater than 10 µM. It also gave an IC50 [3, 5] of less than 1000 nM and an IC50 [3, 4] of less than 1000 nM.

With CC(=O)O[C@@H]([C@H]1C[C@@H](C)[C@H]2[C@H](O1)[C@H](O)[C@@]1(C)[C@@H]3CC[C@H]4C(C)(C)C(OC(N)=O)CC[C@@]45C[C@@]35CC[C@]21C)C(C)(C)O (some centres unmarked) [drawing 1201] the IC50 [1, 5] was less than 1000 nM, the IC50 [1, 4] was less than 1000 nM and the inhibition at 20 µM ([2]; Homo sapiens, Aβ-40, 20 μM) was 25 to 75%. For the same compound, the IC50 [3, 5] was less than 1000 nM and the IC50 [3, 4] was less than 1000 nM.

In the case of CC(=O)O[C@@H]([C@H]1C[C@@H](C)[C@H]2[C@H](O1)C(=O)[C@@]1(C)[C@@H]3CC[C@H]4C(C)(C)[C@@H](O[C@H]5CN(CC(N)=O)CCO5)CC[C@@]45C[C@@]35CC[C@]21C)C(C)(C)O [drawing 1202], the inhibition at 20 µM ([1]; Homo sapiens) is reported as 25 to 75%, the IC50 [2, 5] is reported as less than 1 µM and the IC50 [3, 5] is reported as less than 1000 nM. For the same compound, the IC50 [3, 4] was less than 1000 nM.

In the case of CC1CC(CO)OC2C1C1(C)CCC34CC35CCC(OC3OCC(O)C(O)C3O)C(C)(C)C5CCC4C1(C)C2O (centres unmarked) [drawing 1203], the IC50 ([1]; read-out: IC50 range) is reported as greater than 10000 nM, the “% Inh. (range)” value ([2]; Aβ-40, 100 μM) is reported as “E^a (100 μM) E^b (100 μM) (% inhibition of 25-75%)” and the “% Inh. (range)” value ([3]; Aβ-38, 100 μM) is reported as “E^a (100 μM) E^b (100 μM) (% inhibition of 25-75%)”.

With CC(=O)OC(C1CC(C)C2C(O1)C(O)C1(C)C3CCC4C(C)(C)C(OC5CN(S(C)(=O)=O)CCO5)CCC45CC35CCC21C)C(C)(C)O (centres unmarked) [drawing 1204] the IC50 ([1]; read-out: 50% reduction value) was less than 1000 nM, the IC50 ([1]; read-out: IC50 range) was less than 1000 nM and the “% Inh. (range)” value ([2]; Aβ-40, 100 μM) was “E^b (100 μM) (% inhibition of 25-75%)”. The IC50 ([3]; read-out: 50% reduction value) was less than 1000 nM.

CC(=O)OC(C1CC(C)C2C(O1)C(O)C1(C)C3CCC4C(C)(C)C(OC(=O)C5CNC5)CCC45CC35CCC21C)C(C)(C)O (centres unmarked) [drawing 1205] was tested, and the IC50 ([1]; read-out: 50% reduction value) was less than 1000 nM, the IC50 ([1]; read-out: IC50 range) was less than 1000 nM and the IC50 ([2]; read-out: 50% reduction value) was less than 1 µM. The IC50 ([2]; read-out: IC50 range) was 1 to 10 µM, the IC50 ([3]; read-out: 50% reduction value) was less than 1000 nM and the IC50 ([3]; read-out: IC50 range) was less than 1000 nM.

In the case of CC(=O)OCC1CC(C)C2C(O1)C(O)C1(C)C3CCC4C(C)(C)C(OC5OCC(O)C(O)C5O)CCC45CC35CCC21C (centres unmarked) [drawing 1206], the “% Inh. (range)” value [1] is reported as “E^a (20 μM) E^b (20 μM) E^c (20 μM) (% inhibition of 25-75%)”, the “% Inh. (range)” value ([2]; Aβ-40, 20 μM) is reported as “E^a (20 μM) E^b (20 μM) E^c (20 μM) (% inhibition of 25-75%)” and the “% Inh. (range)” value ([3]; Aβ-38, 20 μM) is reported as “E^a (20 μM) E^b (20 μM) E^c (20 μM) (% inhibition of 25-75%)”.

Work on CC(=O)N(Cc1ccccc1)CC1CC(C)C2C(O1)C(O)C1(C)C3CCC4C(C)(C)C(O)CCC45CC35CCC21C (centres unmarked) [drawing 1207] yielded an IC50 ([1]; read-out: 50% reduction value) of 1000 to 10000 nM, an IC50 ([1]; read-out: IC50 range) of less than 1000 nM and an IC50 ([2]; read-out: 50% reduction value) of 1 to 10 µM. It also gave an IC50 ([3]; read-out: 50% reduction value) of 1000 to 10000 nM.

With CC1CC(C(=O)O)OC2C1C1(C)CCC34CC35CCC(O)C(C)(C)C5CCC4C1(C)C2O (centres unmarked) [drawing 1208] the “% Inh. (range)” value [1] was “F^a (20 μM) F^b (20 μM) F^c (20 μM) (% inhibition of <25%)”, the “% Inh. (range)” value ([2]; Aβ-40, 20 μM) was “F^a (20 μM) F^b (20 μM) F^c (20 μM) (% inhibition of <25%)” and the “% Inh. (range)” value ([3]; Aβ-38, 20 μM) was “F^a (20 μM) F^b (20 μM) F^c (20 μM) (% inhibition of <25%)”.
